The values below come from PMC12521527, “In vivo self-assembled nano-PROTAC for the dual degradation of AR and HSP90 to overcome castration-resistant prostate cancer resistance” (Signal Transduction and Targeted Therapy, 2025).

Numbered stars: 1 amine (or outer) side, 2 acyl side, 3 side chain; on linkers, the order of the positions; unused ones are H or OH. Square brackets hold non-standard residues; d marks the D form. Peptide text beside a SMILES is read from it. * marks the point of attachment. X2 = CC1(C)C(=O)N(c2ccc(C#N)c(C(F)(F)F)c2)C(=S)N1c1ccc(C(=O)*)c(F)c1; X1 = O=C1CCC(N2C(=O)c3cccc(N(CC(=O)[*:2])[*:1])c3C2=O)C(=O)N1; EuK = O=C(O)CC[C@H](NC(=O)N[C@@H](CCCCN*)C(=O)O)C(=O)O; 2Nal = N[C@@H](Cc1ccc2ccccc2c1)C(=O)O

The nature of data set [1]: Cellular cytotoxicity, LNCaP. Type of data set: cell-based. The following applies: human, LNCaP cells.
The target in data set [2] is T1, AR protein (Homo sapiens, UniProt P10275).
T1 sequence (P10275 1-920): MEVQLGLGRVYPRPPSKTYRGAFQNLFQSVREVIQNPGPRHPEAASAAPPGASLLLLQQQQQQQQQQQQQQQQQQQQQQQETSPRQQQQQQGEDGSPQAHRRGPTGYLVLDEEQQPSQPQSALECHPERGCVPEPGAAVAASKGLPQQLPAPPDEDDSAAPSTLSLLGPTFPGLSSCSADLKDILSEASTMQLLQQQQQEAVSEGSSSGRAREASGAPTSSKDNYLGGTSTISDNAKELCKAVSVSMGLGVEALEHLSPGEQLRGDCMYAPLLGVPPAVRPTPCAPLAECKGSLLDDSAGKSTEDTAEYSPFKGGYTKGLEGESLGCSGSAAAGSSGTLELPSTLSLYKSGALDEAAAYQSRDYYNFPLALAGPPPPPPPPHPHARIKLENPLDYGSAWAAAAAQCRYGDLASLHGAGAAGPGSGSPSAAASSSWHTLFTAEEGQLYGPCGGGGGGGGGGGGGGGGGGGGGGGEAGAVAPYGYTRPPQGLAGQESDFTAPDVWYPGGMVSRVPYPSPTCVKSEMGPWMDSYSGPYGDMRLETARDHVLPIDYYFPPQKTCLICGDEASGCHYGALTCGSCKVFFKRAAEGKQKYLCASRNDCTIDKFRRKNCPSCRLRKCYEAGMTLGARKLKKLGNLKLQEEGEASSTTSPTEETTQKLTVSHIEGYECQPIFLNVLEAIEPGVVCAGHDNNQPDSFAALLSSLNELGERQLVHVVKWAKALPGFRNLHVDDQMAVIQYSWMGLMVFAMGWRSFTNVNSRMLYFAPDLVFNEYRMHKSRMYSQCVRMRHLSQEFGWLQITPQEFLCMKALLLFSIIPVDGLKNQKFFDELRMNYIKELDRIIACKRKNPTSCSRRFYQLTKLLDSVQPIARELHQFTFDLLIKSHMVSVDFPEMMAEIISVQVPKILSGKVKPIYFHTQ
The data set can be described thus: MST binding affinity, Psa-AR and AR protein. The following applies: RED-NHS-labeled AR 400 nM, PBS-T, 22 °C, n = 3, read-out: Kd, binding affinity between Psa-AR and AR. An excerpt: Fig. 3 Polynary nanocomposite (AR: Psa-AR: CRBN) formation. a Dose‒response curve for the binding interaction between Psa-AR and the AR protein; n = 3 per group. b Dose‒response curve for the binding interaction between Psa-AR and the CRBN protein; n = 3 per group. c Dose‒response curve for the binding interaction between the binary complex (Psa-AR: AR) and CRBN, n = 3 per group. d In vitro Psa-AR self-assembly, protein binding and degradation. e Representative 22Rv1 cell CLSM images of FITC-labeled Psa-AR assembly (green channel) interacting with HSP90 (red channel) and its colocalization analysis (1–1’). […] Scale bar: 10 μm.
MST (NanoTemper Technologies GmbH, Munich, Germany) was utilized to evaluate the binding affinity between Psa-AR and RED-NHS-labeled PSMA, AR, or CRBN proteins. The PSMA, AR, and CRBN proteins were labeled with the Protein Labeling Kit RED-NHS 2nd Generation (Amine Reactive). RED-PSMA, RED-AR, and RED-CRBN proteins were diluted to a final concentration of 400 nM with PBS-T buffer (0.05% Tween 20), where the fluorescence signals satisfied the typical detection limit of the Monolith NT.115 instrument (NanoTemper Technologies). The binding affinity between Psa-AR and the RED-NHS-labeled AR protein was assessed. […] Then, 10 µL of RED-CRBN was added to each sample to achieve a final concentration of 400 nM. […] The data were analyzed by NanoTemper analysis software.

Data set [3] deals with RWPE-1 cells. The data set can be described thus: Cytotoxicity in normal RWPE-1 cells. Type of data set: cell-based. The settings on record: PSMA^low normal RWPE-1 cells, 1–100 μM, 48 h of exposure.
Test in data set [4]: not given
The source holds these as a separate data set.

Data set [5] concerns RWPE-1 (PSMA^low) and 22Rv1 (PSMA^high) cells. The data set can be described thus: Uptake in RWPE-1 versus 22Rv1 cells (flow cytometry, IF). It is filed as cell-based. As for the experimental part:
Fig. 2 a Representative 22Rv1 cell CLSM images of FITC-labeled Psa-AR (40 μM) assembly (green channel) interacting with PSMA (red channel) and its colocalization analysis (1–1’). Scale bar: 10 μm. b Representative SEM images of 22Rv1 cells after treatment with Psa-AR (40 μM) for 4 h. Scale bar: 1 μm. Scale bar: 200 nm (zoom in). c Representative 22Rv1 cell CLSM images of FITC-labeled P-AR (40 μM) (green channel) interacting with PSMA (red channel). Scale bar: 10 μm. d Representative SEM images of 22Rv1 cells after treatment with P-AR (40 μM) for 4 h. Scale bar: 1 μm. Scale bar: 200 nm (zoom in). e The uptake of either Psa-AR or P-AR by 22Rv1 (PSMA^high) and RWPE-1 (PSMA^low) cells was examined by flow cytometry, followed by comprehensive quantitative analysis (f), n = 3 per group. g Representative 22Rv1 cell CLSM images of FITC-labeled Psa-AR assembly (green channel) with lysosomes (red channel) and colocalization analysis. Scale bar: 10 μm. h Representative CLSM images of 22Rv1 cells after incubation with FITC-labeled Psa-AR (green channel) for 12 h. […]
A total of 1 × 10^5 22Rv1 cells per well were seeded in 6-well plates in DMEM containing 10% fetal bovine serum and 1% penicillin‒streptomycin. […] Then, the cells were collected to evaluate fluorescence expression via flow cytometry. […] The cells were then collected and analyzed for fluorescence expression via flow cytometry.
A general note: A flow cytometer gives signals particle by particle.

One may read the IC50 as the concentration needed to halve the response being measured. Read a high IC50 as lower potency. As usually defined, the Kd is a measure of binding affinity in units of concentration. `CC1(C)C(=O)N(c2ccc(C#N)c(C(F)(F)F)c2)C(=S)N1c1ccc(C(=O)NCCCC[C@H](NC(=O)CNc2cccc3c2C(=O)N(C2CCC(=O)NC2=O)C3=O)C(=O)N[C@@H](CS)C(=O)N[C@@H](CCC(N)=O)C(=O)N[C@@H](Cc2ccc(O)cc2)C(=O)N[C@@H](CC(N)=O)C(=O)N[C@@H](CCC(N)=O)C(=O)N[C@@H](Cc2ccc(O)cc2)C(=O)N[C@@H](Cc2ccc(O)cc2)C(=O)N[C@@H](Cc2ccc3ccccc3c2)C(=O)NCCCC[C@H](NC(=O)N[C@@H](CCC(=O)O)C(=O)O)C(=O)O)c(F)c1` (stereo partly shown) [Psa-AR] (H-[X1]K(X2)CQYNQYY[2Nal]-EuK) yielded an FTIR amide I peak with PSMA of 1630 cm⁻¹. For the same compound, it took 11.1 ± 1.4 µM to reach half-maximal inhibition in data set [1] (IC50). Also, the Kd in data set [2] stood at 0.95 µM. For the same compound, in data set [3], the “cell viability relative to vehicle controls” value is “above 90%”. Also, the FTIR amide I peak without PSMA in data set [4] amounted to 1660 cm⁻¹. Further, the “selectivity ratio between PSMA^low RWPE-1 and PSMA^high 22Rv1 cells, relative to P-AR” value in data set [5] (FITC-labeled, 40 µM, 24 h, flow cytometry, n = 3) is listed as 13 fold. In addition, the “cellular uptake in RWPE-1 cells” value in data set [5] (IF, RWPE-1 (PSMA^low) cells) was “low cellular uptake”.
